Experimental data reported in patent US9475816B2, “Substituted-1,4-dihydropyrazolo[4,3-b]indoles” (TAKEDA PHARMACEUTICAL COMPANY LIMITED, priority 2012, dated 2016).

Experiments:
human MetAP2 enzyme [1] = target: T1, human MetAP2 enzyme (Homo sapiens, UniProt P50579); assay: MetAP2 enzyme assay, MetAP2 enzyme complexed with cobalt ions; conditions: MetAP2 Co pIC50, 10 μM CoCl2; -log(IC50), IC50 molar
Protocol: (§1) DNA encoding the full-length sequence of human MetAP2 enzyme is amplified by PCR and cloned into a pFastBac expression vector (Invitrogen). Recombinant baculovirus incorporating the MetAP2 construct is generated by transposition using the Bac-to-Bac system (Invitrogen). The expression of recombinant protein is carried out by infection of Spodoptera frugiperda Sf9 cells (Invitrogen) in 5L Wave Bioreactors (Wave Biotech). Recombinant protein is isolated from cellular extracts by binding to an SP Hitrap Fast Flow or SP Sepharose (Sigma) column, and the protein is eluted using a NaCl gradient. Partially purified extracts of MetAP2 are further purified by an AKTA FPLC over a Superdex-200 column (GE). The purity of MetAP2 protein is determined on denaturing SDS-PAGE gel.
(§2) The results for each well are expressed as percent inhibition and calculated using the equation:

human MetAP2 enzyme [2] = target: T1, human MetAP2 enzyme; assay: MetAP2 enzyme assay, MetAP2 enzyme complexed with manganese ions; conditions: MetAP2 Mn pIC50, 10 μM MnCl2; -log(IC50), IC50 molar
Protocol: as §1, §2

T1 sequence (P50579 whole entry): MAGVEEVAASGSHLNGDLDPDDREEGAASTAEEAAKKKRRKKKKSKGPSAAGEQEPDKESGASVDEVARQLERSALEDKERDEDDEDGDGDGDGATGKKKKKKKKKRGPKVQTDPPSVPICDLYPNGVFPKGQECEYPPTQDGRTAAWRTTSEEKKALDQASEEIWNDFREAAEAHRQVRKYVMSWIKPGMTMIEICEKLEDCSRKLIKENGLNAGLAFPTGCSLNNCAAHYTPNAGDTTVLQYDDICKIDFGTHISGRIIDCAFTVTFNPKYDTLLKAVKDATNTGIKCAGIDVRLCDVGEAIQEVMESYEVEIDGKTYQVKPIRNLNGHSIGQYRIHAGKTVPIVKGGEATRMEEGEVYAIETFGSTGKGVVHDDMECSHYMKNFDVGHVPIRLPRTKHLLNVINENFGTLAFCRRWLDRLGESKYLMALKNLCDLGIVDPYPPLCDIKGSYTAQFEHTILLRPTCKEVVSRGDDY

Row | IC50 (human MetAP2 enzyme [1]) [nM] | IC50 (human MetAP2 enzyme [2]) [nM] | SMILES
1 | 7.94 | 15.8 | Cc1nc(N2CC(O)C2)ncc1-n1c2ccc(F)cc2c2[nH]ncc21 [Example 127, 1-(5-(7-Fluoropyrazolo[4,3-b]indol-4(1H)-yl)-4-methylpyrimidin-2-yl)azetidin-3-ol]
2 | 10 | 6.31 | Cc1nc(CCS(C)(=O)=O)ccc1-n1c2ccc(F)cc2c2[nH]ncc21 [Example 133, 7-Fluoro-4-(2-methyl-6-(2-(methylsulfonyl)ethyl)pyridin-3-yl)-1,4-dihydropyrazolo[4,3-b]indole]
3 | 15.8 | 15.8 | Cc1nc(C(=O)N(C)CCO)ccc1-n1c2ccc(F)cc2c2[nH]ncc21 [Example 120, 5-(7-Fluoropyrazolo[4,3-b]indol-4(1H)-yl)-N-(2-hydroxyethyl)-N,6-dimethylpicolinamide]
4 | 10 | 10 | Cc1nc(C(=O)NC[C@H](C)O)ccc1-n1c2ccc(F)cc2c2[nH]ncc21 [Example 126, 5-(7-Fluoropyrazolo[4,3-b]indol-4(1H)-yl)-N-((2S)-2-hydroxypropyl)-6-methylpicolinamide]
5 | 7.94 | 7.94 | Cc1nc(C(=O)NCCC#N)ccc1-n1c2ccc(F)cc2c2[nH]ncc21 [Example 122, N-(2-Cyanoethyl)-5-(7-fluoropyrazolo[4,3-b]indol-4(1H)-yl)-6-methylpicolinamide]
6 | 15.8 | 6.31 | OCc1nn(C(F)F)cc1-n1c2ccc(F)cc2c2[nH]ncc21 [Example 134, (1-(Difluoromethyl)-4-(7-fluoropyrazolo[4,3-b]indol-4(1H)-yl)-1H-pyrazol-3-yl)methanol]
7 | 10 | 12.6 | Cc1nc2[nH]cnc2cc1-n1c2cc(F)c(F)cc2c2[nH]ncc21 [Example 130, 6,7-Difluoro-4-(5-methyl-3H-imidazo[4,5-b]pyridin-6-yl)-1,4-dihydropyrazolo[4,3-b]indole]
8 | 20 | 15.8 | Cc1nc(C(=O)N(C)CC#N)ccc1-n1c2ccc(F)cc2c2[nH]ncc21 [Example 121, N-(Cyanomethyl)-5-(7-fluoropyrazolo[4,3-b]indol-4(1H)-yl)-N,6-dimethylpicolinamide]
9 | 25.1 | 12.6 | Cc1cc(C(=O)N2CC(N)C2)ncc1-n1c2ccc(F)cc2c2[nH]ncc21 [Example 114, (3-Aminoazetidin-1-yl)(5-(7-fluoropyrazolo[4,3-b]indol-4(1H)-yl)-4-methylpyridin-2-yl)methanone]
10 | 79.4 | 63.1 | Cc1nc2[nH]cnc2cc1-n1c2cc(Cl)ccc2c2[nH]ncc21 [Example 128, 6-Chloro-4-(5-methyl-3H-imidazo[4,5-b]pyridin-6-yl)-1,4-dihydropyrazolo[4,3-b]indole]
11 | 50.1 | 50.1 | CC(c1ccccc1)n1c2ccc(F)cc2c2[nH]ncc21 (centres unmarked) [Example 132, 7-Fluoro-4-(1-phenylethyl)-1,4-dihydropyrazolo[4,3-b]indole]

Further lines, the compound ahead of its results:

Row | SMILES | IC50 (human MetAP2 enzyme [1]) [nM] | IC50 (human MetAP2 enzyme [2]) [nM]
12 | Cc1nc(N2CC(CO)C2)ncc1-n1c2ccc(F)cc2c2[nH]ncc21 [Example 47, (1-(5-(7-Fluoropyrazolo[4,3-b]indol-4(1H)-yl)-4-methylpyrimidin-2-yl)azetidin-3-yl)methanol] | 7.94 | 12.6
13 | Cc1cc2cnn(C)c2cc1-n1c2ccc(F)cc2c2[nH]ncc21 [Example 14, 4-(1,5-Dimethyl-1H-indazol-6-yl)-7-fluoro-1,4-dihydropyrazolo[4,3-b]indole] | 7.94 | 7.94
14 | CCN1CCn2ncc(-n3c4ccc(F)cc4c4[nH]ncc43)c2C1 [Example 112, 4-(5-Ethyl-4,5,6,7-tetrahydropyrazolo[1,5-a]pyrazin-3-yl)-7-fluoro-1,4-dihydropyrazolo[4,3-b]indole] | 12.6 | 20
15 | Cc1nc(N2CC(C(N)=O)C2)ncc1-n1c2ccc(F)cc2c2[nH]ncc21 [Example 89, 1-(5-(7-Fluoropyrazolo[4,3-b]indol-4(1H)-yl)-4-methylpyrimidin-2-yl)azetidine-3-carboxamide] | 20 | 10
16 | Cc1nc(C(=O)NC2CC2)ccc1-n1c2ccc(F)cc2c2[nH]ncc21 [Example 101, N-Cyclopropyl-5-(7-fluoropyrazolo[4,3-b]indol-4(1H)-yl)-6-methylpicolinamide] | 10 | 10
17 | Cc1cc(C(=O)N2CC[C@@H](O)C2)ncc1-n1c2ccc(F)cc2c2[nH]ncc21 [Example 109, (5-(7-Fluoropyrazolo[4,3-b]indol-4(1H)-yl)-4-methylpyridin-2-yl)((R)-3-hydroxypyrrolidin-1-yl)methanone] | 25.1 | 25.1
18 | Cc1nc(N2CCN(C)CC2)ncc1-n1c2ccc(F)cc2c2[nH]ncc21 [Example 60, 7-Fluoro-4-(4-methyl-2-(4-methylpiperazin-1-yl)pyrimidin-5-yl)-1,4-dihydropyrazolo[4,3-b]indole] | 3.16 | 10
19 | Fc1ccc2c(c1)c1[nH]ncc1n2-c1cnn2c1CNCC2 [Example 25, 7-Fluoro-4-(4,5,6,7-tetrahydropyrazolo[1,5-a]pyrazin-3-yl)-1,4-dihydropyrazolo[4,3-b]indole] | 25.1 | 12.6
20 | CCn1cnc2cc(-n3c4ccc(F)cc4c4[nH]ncc43)c(C)nc21 [Example 30, 4-(3-Ethyl-5-methyl-3H-imidazo[4,5-b]pyridin-6-yl)-7-fluoro-1,4-dihydropyrazolo[4,3-b]indole] | 3.98 | 6.31
21 | N#Cc1[nH]ncc1-n1c2ccc(F)cc2c2[nH]ncc21 [Example 22, 4-(7-Fluoropyrazolo[4,3-b]indol-4(1H)-yl)-1H-pyrazole-5-carbonitrile] | 31.6 | 10
22 | Cc1cc(C(=O)N2CC(O)C2)ncc1-n1c2ccc(F)cc2c2[nH]ncc21 [Example 94, (5-(7-Fluoropyrazolo[4,3-b]indol-4(1H)-yl)-4-methylpyridin-2-yl)(3-hydroxyazetidin-1-yl)methanone] | 10 | 7.94
23 | Cc1nc2c(cc1-n1c3ccc(F)cc3c3[nH]ncc31)ncn2CCO [Example 82, 2-(6-(7-Fluoropyrazolo[4,3-b]indol-4(1H)-yl)-5-methyl-3H-imidazo[4,5-b]pyridin-3-yl)ethanol] | 7.94 | 10
24 | Cc1cc2cn[nH]c2cc1-n1c2ccc(F)cc2c2[nH]ncc21 [Example 26, 7-Fluoro-4-(5-methyl-1H-indazol-6-yl)-1,4-dihydropyrazolo[4,3-b]indole] | 10 | 7.94
25 | Cc1nc(N2CCC[C@H]2C(N)=O)ncc1-n1c2ccc(F)cc2c2[nH]ncc21 [Example 72, (2S)-1-(5-(7-Fluoropyrazolo[4,3-b]indol-4(1H)-yl)-4-methylpyrimidin-2-yl)pyrrolidine-2-carboxamide] | 7.94 | 3.16
26 | CNc1cc(C)c(-n2c3ccc(F)cc3c3[nH]ncc32)cn1 [Example 45, 5-(7-Fluoropyrazolo[4,3-b]indol-4(1H)-yl)-N,4-dimethylpyridin-2-amine] | 6.31 | 12.6
27 | Cc1nc(N2CCN(C)CC2)ccc1-n1c2ccc(F)cc2c2[nH]ncc21 [Example 7, 7-Fluoro-4-(2-methyl-6-(4-methylpiperazin-1-yl)pyridin-3-yl)-1,4-dihydropyrazolo[4,3-b]indole] | 15.8 | 12.6
28 | CN1CCN(C(=O)c2ccc(Cn3c4ccc(F)cc4c4[nH]ncc43)cc2)CC1 [Example 53, (4-((7-Fluoropyrazolo[4,3-b]indol-4(1H)-yl)methyl)phenyl)(4-methylpiperazin-1-yl)methanone] | 50.1 | 79.4
29 | Fc1cc2c3[nH]ncc3n(Cc3ccccc3)c2cc1F [Example 2, 4-Benzyl-6,7-difluoro-1,4-dihydropyrazolo[4,3-b]indole] | 100 | 50.1
30 | Cc1c(-n2c3ccc(F)cc3c3[nH]ncc32)cnc(N)c1C [Example 68, 5-(7-Fluoropyrazolo[4,3-b]indol-4(1H)-yl)-3,4-dimethylpyridin-2-amine] | 10 | 3.16
31 | Cc1nc(N2CCOCC2)ccc1-n1c2ccc(F)cc2c2[nH]ncc21 [Example 66, 4-(5-(7-Fluoropyrazolo[4,3-b]indol-4(1H)-yl)-6-methylpyridin-2-yl)morpholine] | 10 | 3.16
32 | CCn1nc(C)c(-n2c3ccc(F)cc3c3[nH]ncc32)c1C [Example 23, 4-(1-Ethyl-3,5-dimethyl-1H-pyrazol-4-yl)-7-fluoro-1,4-dihydropyrazolo[4,3-b]indole] | 10 | 15.8
33 | Cc1nc(N2CCO[C@H](CO)C2)ncc1-n1c2ccc(F)cc2c2[nH]ncc21 [Example 83, ((2S)-4-(5-(7-Fluoropyrazolo[4,3-b]indol-4(1H)-yl)-4-methylpyrimidin-2-yl)morpholin-2-yl)methanol] | 6.31 | 7.94
34 | Cc1nc(NC[C@@H](C)O)ncc1-n1c2ccc(F)cc2c2[nH]ncc21 [Example 93, (2R)-1-((5-(7-Fluoropyrazolo[4,3-b]indol-4(1H)-yl)-4-methylpyrimidin-2-yl)amino)propan-2-ol] | 7.94 | 6.31
35 | Cc1nc(N2CCC[C@H](O)C2)ncc1-n1c2ccc(F)cc2c2[nH]ncc21 [Example 37, (3S)-1-(5-(7-Fluoropyrazolo[4,3-b]indol-4(1H)-yl)-4-methylpyrimidin-2-yl)piperidin-3-ol] | 6.31 | 6.31
36 | Cn1nccc1-n1c2ccc(F)cc2c2[nH]ncc21 [Example 46, 7-Fluoro-4-(1-methyl-1H-pyrazol-5-yl)-1,4-dihydropyrazolo[4,3-b]indole] | 20 | 20
37 | Cc1nc2[nH]c(=O)n(CCO)c2cc1-n1c2ccc(F)cc2c2[nH]ncc21 [Example 32, 6-(7-Fluoropyrazolo[4,3-b]indol-4(1H)-yl)-1-(2-hydroxyethyl)-5-methyl-1H-imidazo[4,5-b]pyridin-2(3H)-one] | 7.94 | 10
